Experimental data published in PMC9698201, “Factors Affecting Cellular Uptake of Anthocyanins: The Role of pH, Glucose and Anthocyanin Structure” (Nutrients, 2022).

Key:
Caco-2 cells = assay: Uptake experiment, anthocyanins taken up by cells quantified by HPLC; assay type: in vitro ADME, human; conditions: for increase in uptake with decreasing pH from 7 to 6.5: 10 µM strawberry anthocyanins; for Normalised Uptake (%): extrapolated to initial amount 10 µg/10 mL, intercept set at zero; for Uptake (%): 1 h, % of initial concentration; for uptake reduction in the presence of glucose: 20 µM red grape anthocyanin extract, 1 mM glucose vs control without glucose
Experimental: Caco-2 cells were seeded at a density of 5 × 10^5 cells in a Petri dish of 10 cm diameter with a volume of 10 mL, containing DMEM supplemented with 10% FBS, 1% NEAA and 1% penicillin and streptomycin. […] Caco-2 cells were used between passages 65–76. The medium was changed every 2–3 days. On day 14, the cells were ready for the uptake experiment. Prior to the study, the medium were removed, and the cells were rinsed with PBS.
The effect of anthocyanin structure was examined using anthocyanin extract from strawberry at 10 and 20 µM while the effect of glucose was performed at 20 µM red grape anthocyanin extract in the presence of 1 mM glucose. Additionally, 10 µM strawberry anthocyanins at pH 6.5 and 7 was used to examine the effect of pH on anthocyanin uptake.
Briefly anthocyanin stock solution was diluted to a final concentration of 10 or 20 µM in DPBS. The anthocyanins (10 mL) were immediately added to the cells, and subsequently incubated at 37 °C for 1h. Following the incubation, DPBS containing anthocyanins was removed and the cells were washed with PBS three times. The anthocyanins taken up by the cells were extracted with 6% formic acid and scraped off for collection. The extract along with the scraped cells were then sonicated, followed by centrifugation at 4 °C, 1700× g for 10 min. The supernatant was filtered and dried under nitrogen. The dry anthocyanins were redissolved in 200 µL of aqueous formic acid containing 10% acidified methanol, and then filtered into the insert prior to HPLC analysis.
HPLC was used to identify and quantify anthocyanins present in juices and cellular extract following the uptake experiment. Anthocyanin standards and their standard curves were used to identify and quantify different anthocyanin structure present in juices and cellular extracts by determining their area under curve. The analysis was performed using an Agilent 1200 series HPLC with quaternary pump and diode array UV-visible detector. Sample (50 µL) was injected onto a reverse phase column of Nova-pak@C18 4 µm, with dimensions of 4.6 × 250 mm (Waters) equipped with a guard column. The mobile phases were 1% aqueous formic acid as solvent A and acetonitrile as solvent B. The flow rate was 1 mL/min with a column temperature of 35 °C. […] Solvent B was maintained at 100% for 5 min, and returned to 100% solvent A and 0% solvent B at 60 min. Wavelengths of 280 and 520 nm were chosen to detect the anthocyanins.

[1] = Anthocyanin stability during 1 h incubation at pH 7 and 6.5; assay type: physicochemical
Experimental: To assess degradation due to the pH, strawberry juice extract was incubated under the same conditions in the absence of the cells (Figure 3II). […] Anthocyanins can form additional compounds important for copigmentation with phenolic acids and can form pyranoanthocyanins.
The increased uptake with decreasing pH may be linked to the anthocyanins stability and indicate the involvement of pH dependent transport mechanisms involving a proton co-transporter.

[2] = Extrapolation of Caco-2 uptake to jejunum uptake and blood/plasma concentration; conditions: absorption of 0.88 mg, assuming 5 litres of blood
[3] = parameters: method as in PMID 18211024; conditions: strawberries containing 222 µmol pelargonidin-3-O-glucoside ingested; cited from earlier work
[4] = strawberry anthocyanins at 10 µM, initial amount Cn 1.91, Pg 45.69, Pg-rham 14.50 µg/10 mL
[5] = strawberry anthocyanins at 20 µM, initial amount Cn 3.89, Pg 95.23, Pg-rham 29.59 µg/10 mL

Row | increase in uptake with decreasing pH from 7 to 6.5 (Caco-2 cells) [%] | Normalised Uptake (%) (Caco-2 cells) | Uptake (%) (Caco-2 cells; [4]) | stability ([1]; pH 6.5, 1 h incubation) [%] | stability ([1]; pH 7, 1 h incubation) [%] | Molecule | uptake reduction in the presence of glucose (Caco-2 cells) | other results
1 | 88 | 0.02 | 2.66 × 10^−2% | 91.8 | 72.3 | pelargonidin-3-rhamnosylglucoside |  | Uptake (%) (Caco-2 cells; [5]): 5.93 × 10^−2%
2 |  |  |  |  |  | COc1cc(-c2[o+]c3cc(O)cc(O)c3cc2O[C@@H]2O[C@H](CO)[C@@H](O)[C@H](O)[C@H]2O)cc(OC)c1O [malvidin-3-glucoside] | 69–72% | 
3 | 118 | 0.007 | 2.88 × 10^−2% | 93.7 | 67.7 | OC[C@H]1O[C@@H](Oc2cc3c(O)cc(O)cc3[o+]c2-c2ccc(O)cc2)[C@H](O)[C@@H](O)[C@@H]1O [pelargonidin-3-glucoside] |  | Uptake (%) (Caco-2 cells; [5]): 6.95 × 10^−2%; blood concentration [2]: 400 nM; plasma concentration [2]: 727 nM
4 |  |  |  |  |  | COc1cc(-c2[o+]c3cc(O)cc(O)c3cc2O[C@@H]2O[C@H](CO)[C@@H](O)[C@H](O)[C@H]2O)cc(O)c1O [petunidin-3-glucoside] | 69–72% | 
5 |  |  |  |  |  | OC[C@H]1O[C@@H](Oc2cc3c(O)cc(O)cc3[o+]c2-c2cc(O)c(O)c(O)c2)[C@H](O)[C@@H](O)[C@@H]1O [delphinidin-3-glucoside] | 42% | 
6 | 139 | 0.159 | 2.32 × 10^−2% | 88.7 | 63.1 | OC[C@H]1O[C@@H](Oc2cc3c(O)cc(O)cc3[o+]c2-c2ccc(O)c(O)c2)[C@H](O)[C@@H](O)[C@@H]1O [cyanidin-3-glucoside] | 67% | Uptake (%) (Caco-2 cells; strawberry anthocyanins at 20 µM, initial amount Cn 3.89, Pg 95.23, Pg-rham 29.59 µg/10 mL, listed as Cn): 6.54 × 10^−2%
7 |  |  |  |  |  | pelargonidin-O-glucuronide |  | peak plasma concentration [3]: 274 ± 24 nM; time of peak plasma concentration [3]: 1.1 ± 0.4 h
